Assay results as given in patent US12678509B2, “Inhibitor of apoptosis (IAP) protein antagonists” (Sanford Burnham Prebys Medical Discovery Institute, priority 2019, dated 2026).
pEC50, pIC50, pKi: −log10 of the molar value.

Columns and labels:
NB-4 = assay: Cell viability (CellTiter-Glo); type: cell-based, Human; settings: Homo sapiens, NB-4, 72 h, read-out: NB-4 Viability 72 h IC50
Protocol: The compound 18a was tested in 16 different cell lines. For 6-day compound treatment 1700 cells per well were plated in a 384-well plate (Corning #781098) and incubated overnight at 37° C./5% CO2. […] Afterwards, 20 μL CellTiter-Glo reagent (Promega, #G7570) was added to each well outside of the incubator and the plates were read for luminescence on a Spark® multimode microplate reader (Tecan). Data was fit in GraphPad Prism 8 to a nonlinear regression curve to determine the IC50 of the compounds. […]

MOLM 13 = assay: Cell viability (CellTiter-Glo), 6-day compound treatment; type: cell-based, Human; settings: Homo sapiens, MOLM-13, 144 h, read-out: MOLM 13 Viability 6 d IC50
Protocol: The compound 18a was tested in 16 different cell lines. For 6-day compound treatment 1700 cells per well were plated in a 384-well plate (Corning #781098) and incubated overnight at 37° C./5% CO2. The following day, compounds in 10-fold dilutions were added to the plates and the plates were incubated for 6 days. Afterwards, 20 μL CellTiter-Glo reagent (Promega, #G7570) was added to each well outside of the incubator and the plates were read for luminescence on a Spark® multimode microplate reader (Tecan). Data was fit in GraphPad Prism 8 to a nonlinear regression curve to determine the IC50 of the compounds. […]

SKOV-3 = assay: Cell viability (CellTiter-Glo), 48 hrs; type: cell-based; settings: Homo sapiens, SK-OV-3, 48 h, read-out: SKOV-3 Viability 48 h IC50
Protocol: One thousand seven hundred cells per well were plated in a 384 well plate and incubated overnight at 37° C./5% CO2. The following day, compounds in 10-fold dilutions were added to the plates and the plates returned to the incubator for 48 hrs. 48 hrs later, plates were removed to the bench and 20 μL CellTiter-Glo reagent was added to each well and the plates were read for luminescence on a Spark® multimode microplate reader (Tecan). Data were fit using PRISM to a nonlinear regression curve to determine the IC50 of the compounds.

BIR3 domain of XIAP = BIR3 domain of XIAP (Homo sapiens, UniProt P98170); assay: Fluorescence polarization assay; type: binding; settings: SMAC-FITC probe, Ki calculated from IC50
Protocol: (§1) Binding of compounds to ML-IAP and BIR3 domain of cIAP1, cIAP2 and XIAP was determined by fluorescence polarization. Assay buffer was 100 mM KH2PO4 at pH 7.5, 50 μM ZnSO4, 1 mM TCEP (Tris(2-carboxyethyl)phosphine hydrochloride) and 50 nM SMAC-FITC probe (AbuRPF-K(5-Fam)-NH2) as described by Z. Nikolovska-Coleska et al.^9. cIAP1 and XIAP were present at 800 nM while cIAP2 and MLIAP were present at 1.5 μM. Compounds in 3-fold dilutions were added to the plates ranging from 30 μM to 1.5 nM. Assays were run in 384-well black plates read (Greiner Bio-One #784076) in an Analyst in fluorescence polarization mode with excitation at 485 nm and emission at 535 nm. Data was fit to a nonlinear regression curve in GraphPad Prism 8 to determine the IC50 values of the compounds. Ki's were then calculated from the IC50 values using equation: Ki=[I]50/([L]50/Kd+[P]0/Kd+1) formulated by Z. Nikolovska-Coleska et al.

BIR3 domain of cIAP1 = BIR3 domain of cIAP1 (Homo sapiens, UniProt Q13490); assay: Fluorescence polarization assay; type: binding; settings: SMAC-FITC probe, Ki calculated from IC50
Protocol: as §1

BIR3 domain of cIAP2 = BIR3 domain of cIAP2 (Homo sapiens, UniProt Q13489); assay: Fluorescence polarization assay; type: binding; settings: SMAC-FITC probe, Ki calculated from IC50
Protocol: as §1

ML-IAP = biological target: T1, ML-IAP (Homo sapiens, UniProt Q96CA5); assay: Fluorescence polarization assay; type: binding; settings: SMAC-FITC probe, Ki calculated from IC50
T1 sequence (Q96CA5 1-298): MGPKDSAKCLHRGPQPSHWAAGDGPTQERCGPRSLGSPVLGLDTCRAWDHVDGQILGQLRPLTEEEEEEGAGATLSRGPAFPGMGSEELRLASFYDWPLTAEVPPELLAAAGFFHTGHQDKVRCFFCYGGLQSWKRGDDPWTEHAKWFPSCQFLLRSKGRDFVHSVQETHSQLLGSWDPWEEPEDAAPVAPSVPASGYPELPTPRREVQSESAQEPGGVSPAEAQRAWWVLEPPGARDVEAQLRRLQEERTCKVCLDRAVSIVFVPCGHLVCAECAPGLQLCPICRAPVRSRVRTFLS
Protocol: as §1

[1] = tested on: latently infected cell line Jurkat 2D10; assay: HIV Jurkat 2D10 cells GFP+ assay (reversal of HIV latency); type: cell-based; settings: Homo sapiens, Jurkat, 48 h, read-out: Jurkat 2D10 GFP+ EC50
Protocol: Several compounds (Table 5) were tested for their efficacy in the reversal of HIV latency in the latently infected cell line Jurkat 2D10. Jurkat 2D10 cells were treated with different doses of the compounds, or one of the following compounds: BV-6, SM-164, Birinapant, LCL-161, GDC-0152, AT-406 for 48 hours. Reversal of HW latency was evaluated by analyzing GFP expression using flow cytometry. Induction of GFP expression was compared to baseline GFP levels detected in the absence of treatment.

[2] = Pharmacokinetic study in mice, snapshot PK; type: in vivo; settings: female, C57BL/6J, mouse, plasma, ip, one hour after i.p. injection of 10 mg/kg
Protocol: All animal procedures were approved by the Sanford Burnham Prebys Medical Discovery Institute Institutional Animal Care and Use Committee and were performed according to the NIH guidelines for the Care and Use of Laboratory Animals. Adult female C57BL/6J were purchased from JAX laboratories and housed with free access to food and water on a 12 h light/dark cycle. Compounds were formulated in 5% DMSO, 10% Tween-80, and 85% dH2O and injected intraperitoneally (i.p.) into mice at doses of 10 mg/kg. For snapshot PK analysis, blood samples were collected retro-orbitally one hour after injection and for the time course PK study, blood samples were collected at 15 min, 30 min, 1 h, 2 h, 4 h, 6 h, 24 h time points. For the blood samples plasma was separated by centrifugation. Plasma samples were extracted with acetonitrile:water 4:1 with 0.1% formic acid containing indometacin as an internal standard. Samples were centrifuged and supernatants were diluted with acetonitrile:water and analyzed via LC-MS/MS on a Shimadzu Nexera X2 HPLC coupled to an AB Sciex 6500 QTRAP.
Plasma exposure of selected compounds at 1 h compared.
Plasma levels of parent compound determined one hour after i.p. injection of 10 mg/kg

AML-SH-065 = assay: Cell viability in patient derived AML samples (CellTiterGlo, 72 h); type: cell-based, human; settings: for pIC50: Homo sapiens, 72 h, read-out: AML-SH-065 IC50; for AML-SH-065 Efficacy: patient derived AML sample AML-SH-065, 72 h, cell viability at max. concentration
Protocol: (§2) Patient AML samples were gathered (under IRB 13-6180) from Scripps MD Anderson, La Jolla, CA Fresh blood samples were subjected to gradient density centrifugation with Ficoll-Paque™ PLUS (17-1440-02, GE Healthcare) and peripheral blood mononuclear cells purified as per manufacturer's protocol.
(§3) 75 nL of 1000× serially diluted IAP inhibitors were spotted in triplicate onto 384-well tissue culture treated plates (Greiner) using a Labcyte Echo acoustic dispensing device. Patient-derived AML cells were maintained in mTeSR1^+1× supplements (Stemcell Technologies) and penicillin/streptomycin/L-glutamine (Omega Scientific Inc.) and Fungizone (HyClone). 25 μL of cell dilution were plated into 384-well plate containing the drugs and incubated for 72 h. Cell viability was assessed by adding 25 μL CellTiterGlo (Promega Corp.) on a Synergy 2 plate reader with Gen5 software (Biotek). % viability was calculated by normalizing luminescence to vehicle only controls (DMSO) in Microsoft Excel and plotted using GraphPad Prism 8. The IC50 values were calculated using log(inhibitor) vs. response—Variable slope (four parameters) equation. (FIG. 6)

AML-SH-074 = assay: as above; type: cell-based, human; settings: for pIC50: Homo sapiens, 72 h, read-out: AML-SH-074 IC50; for AML-SH-074 Efficacy: patient derived AML sample AML-SH-074, 72 h, cell viability at max. concentration
Protocol: as §2, §3

AML-SH-075 = assay: as above; type: cell-based, human; settings: for pIC50: Homo sapiens, 72 h, read-out: AML-SH-075 IC50; for AML-SH-075 Efficacy: patient derived AML sample AML-SH-075, 72 h, cell viability at max. concentration
Protocol: as §2, §3

Sequence of BIR3 domain of XIAP (P98170 241-356 limits assumed): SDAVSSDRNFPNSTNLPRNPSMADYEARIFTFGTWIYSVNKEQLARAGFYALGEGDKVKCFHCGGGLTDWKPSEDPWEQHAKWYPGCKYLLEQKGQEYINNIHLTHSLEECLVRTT
Sequence of BIR3 domain of cIAP1 (Q13490 253-363 limits assumed): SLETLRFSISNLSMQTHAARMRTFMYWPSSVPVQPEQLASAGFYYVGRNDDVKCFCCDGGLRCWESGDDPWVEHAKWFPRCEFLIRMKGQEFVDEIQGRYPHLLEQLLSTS
Sequence of BIR3 domain of cIAP2 (Q13489 238-349 limits assumed): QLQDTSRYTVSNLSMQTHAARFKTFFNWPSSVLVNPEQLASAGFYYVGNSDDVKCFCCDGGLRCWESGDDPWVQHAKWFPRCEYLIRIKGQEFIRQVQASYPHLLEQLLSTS

Row | Compound | pIC50 (NB-4) | pIC50 (MOLM 13) | pIC50 (SKOV-3) | pKi (BIR3 domain of XIAP) | pKi (BIR3 domain of cIAP1) | pKi (BIR3 domain of cIAP2) | pKi (ML-IAP) | pEC50 [1] | concentration at 1 h [2] | pIC50 (AML-SH-065) | AML-SH-065 Efficacy (AML-SH-065) | pIC50 (AML-SH-074) | AML-SH-074 Efficacy (AML-SH-074) | pIC50 (AML-SH-075) | AML-SH-075 Efficacy (AML-SH-075)
1 | CN[C@@H](C)C(=O)N[C@H]1CCS[C@H]2CC(C)(C)[C@@H](C(=O)N[C@H]3c4ccccc4C[C@H]3OCCCCCCO[C@@H]3Cc4ccccc4[C@@H]3NC(=O)[C@H]3N4C(=O)[C@@H](NC(=O)[C@H](C)NC)CCS[C@H]4CC3(C)C)N2C1=O [Compound 18b, (2S)-1-{[(4S,7S,9aS)-7-({(1S,2R)-2-[(6-{[(1S,2R)-1-({[(4S,7S,9aS)-8,8-Dimethyl-4-{[(2S)-2-(methylammonio)propanoyl]amino}-5-oxooctahydropyrrolo[2,1-b][1,3]thiazepin-7-yl]carbonyl}amino)-2,3-dihydro-1H-inden-2-yl]oxy}hexyl)oxy]-2,3-dihydro-1H-inden-1-yl}carbamoyl)-8,8-dimethyl-5-oxooctahydropyrrolo[2,1-b][1,3]thiazepin-4-yl]amino}-N-methyl-1-oxopropan-2-ammonium dichloride] | > 8.00 | 6.00 to 7.00 | > 8.00 | ≥ 7.30 | ≥ 7.30 | 7.00 to 7.30 | 7.00 to 7.30 | 8.00 to 9.00 | 714 nM | – | – | – | – | – | –
2 | CN[C@@H](C)C(=O)N[C@H]1CCS[C@H]2CC3(CC=CC3)[C@@H](C(=O)N[C@H]3c4ccccc4C[C@H]3OCC#CC#CCO[C@@H]3Cc4ccccc4[C@@H]3NC(=O)[C@H]3N4C(=O)[C@@H](NC(=O)[C@H](C)NC)CCS[C@H]4CC34CC=CC4)N2C1=O [Compound 18o] | – | 7.00 to 8.00 | > 8.00 | ≥ 7.30 | ≥ 7.30 | 7.00 to 7.30 | 6.70 to 7.00 | 8.00 to 9.00 | 5180 nM | – | – | – | – | – | –
3 | CN[C@@H](C)C(=O)N[C@H]1CCS[C@H]2CC(C)(C)[C@@H](C(=O)N[C@H]3c4ccccc4C[C@H]3OCC#Cc3ccc(C#CCO[C@@H]4Cc5ccccc5[C@@H]4NC(=O)[C@H]4N5C(=O)[C@@H](NC(=O)[C@H](C)NC)CCS[C@H]5CC4(C)C)cc3)N2C1=O [Compound 18c] | > 8.00 | 7.00 to 8.00 | > 8.00 | ≥ 7.30 | ≥ 7.30 | 7.00 to 7.30 | 7.00 to 7.30 | 8.00 to 9.00 | 1310 nM | 7.00 to 8.00 | I (I < 10%) | 6.00 to 7.00 | I (I < 10%) | 5.00 to 6.00 | I (I < 10%)
4 | CN[C@@H](C)C(=O)N[C@H]1CCO[C@H]2CC(C)(C)[C@@H](C(=O)N[C@H]3c4ccccc4C[C@H]3OCC#CC#CCO[C@@H]3Cc4ccccc4[C@@H]3NC(=O)[C@H]3N4C(=O)[C@@H](NC(=O)[C@H](C)NC)CCO[C@H]4CC3(C)C)N2C1=O [Compound 18q, [(1S)-1-{[(4S,7S,9aS)-7-{[(1S,2R)-2-[(6-{[(1S,2R)-1-[(4S,7S,9aS)-8,8-Dimethyl-4-[(2S)-2-(methylazaniumyl)propanamido]-5-oxo-octahydropyrrolo[2,1-b][1,3]oxazepine-7-amido]-2,3-dihydro-1H-inden-2-yl]oxy}hexa-2,4-diyn-1-yl)oxy]-2,3-dihydro-1H-inden-1-yl]carbamoyl}-8,8-dimethyl-5-oxo-octahydropyrrolo[2,1-b][1,3]oxazepin-4-yl]carbamoyl}ethyl](methyl)azanium dichloride] | – | 7.00 to 8.00 | > 8.00 | ≥ 7.30 | 7.00 to 7.30 | 7.00 to 7.30 | 7.00 to 7.30 | 6.00 to 7.00 | 1870 nM | 7.00 to 8.00 | I (I < 10%) | 6.00 to 7.00 | I (I < 10%) | 7.00 to 8.00 | I (I < 10%)
5 | CN[C@@H](C)C(=O)N[C@H]1CCS[C@H]2CC(C)(C)[C@@H](C(=O)N[C@H](CCOCC#CC#CCOCC[C@@H](NC(=O)[C@H]3N4C(=O)[C@@H](NC(=O)[C@H](C)NC)CCS[C@H]4CC3(C)C)c3ccccc3)c3ccccc3)N2C1=O [Compound 18i, (2S)-1-{[(4S,7S,9aS)-74{(1R)-3-[(6-{[(3R)-3-({[(4S,7S,9aS)-8,8-Dimethyl-4-{[(2S)-2-(methylammonio)propanoyl]amino}-5-oxooctahydropyrrolo[2,1-b][1,3]thiazepin-7-yl]carbonyl}amino)-3-phenylpropyl]oxy}hexa-2,4-diyn-1-yl)oxy]-1-phenylpropyl}carbamoyl)-8,8-dimethyl-5-oxooctahydropyrrolo[2,1-b][1,3]thiazepin-4-yl]amino}-N-methyl-1-oxopropan-2-ammonium dichloride] | > 8.00 | 6.00 to 7.00 | > 8.00 | 7.00 to 7.30 | ≥ 7.30 | 7.00 to 7.30 | 7.00 to 7.30 | 7.00 to 8.00 | 1240 nM | – | – | – | – | – | –
